Source: patent US4269971A, “Antibiotic TM-531” (Taisho Pharmaceutical Co., Ltd., priority 1978, dated 1981)

Columns and labels:
[1] = test system: gram-positive and plant pathogenic microorganisms; experiment: Physiological properties: growth inhibitory activity; details: in words
[2] = test system: Saccharomyces cerevisiae; experiment: Antimicrobial activity (MIC), agar medium; type: cell-based; details: potato dextrose agar
Description: (§1) The antimicrobial activity of antibiotic TM-531 was determined in terms of the minimum inhibitory concentration (MIC) using a heart infusion agar medium for the determination of activity on bacteria and a potato dextrose agar medium for the determination of activity on fungi and yeast.

[3] = test system: Proteus vulgaris HX 19; experiment: Antimicrobial activity (MIC), agar medium; type: cell-based; details: heart infusion agar
Description: as §1

[4] = test system: Staphylococcus epidermidis TPR-25; experiment: Antimicrobial activity (MIC), agar medium; type: cell-based; details: heart infusion agar
Description: as §1

[5] = test system: Penicillium citrinum IAM 7003; experiment: Antimicrobial activity (MIC), agar medium; type: cell-based; details: potato dextrose agar
Description: as §1

[6] = test system: Staphylococcus aureus FDA 209 P; experiment: Antimicrobial activity (MIC), agar medium; type: cell-based; details: heart infusion agar
Description: as §1

[7] = test system: Bacillus licheniformis; experiment: Antimicrobial activity (MIC), agar medium; type: cell-based; details: heart infusion agar
Description: as §1

[8] = test system: Corynebacterium xerosis; experiment: Antimicrobial activity (MIC), agar medium; type: cell-based; details: heart infusion agar
Description: as §1

[9] = test system: Micrococcus luteus NIHJ; experiment: Antimicrobial activity (MIC), agar medium; type: cell-based; details: heart infusion agar
Description: as §1

[10] = test system: Candida albicans; experiment: Antimicrobial activity (MIC), agar medium; type: cell-based; details: potato dextrose agar
Description: as §1

[11] = test system: Escherichia coli NIHJ C-2; experiment: Antimicrobial activity (MIC), agar medium; type: cell-based; details: heart infusion agar
Description: as §1

[12] = test system: Streptococcus faecalis ATCC 8043; experiment: Antimicrobial activity (MIC), agar medium; type: cell-based; details: heart infusion agar
Description: as §1

[13] = test system: Staphylococcus epidermidis TRP-13; experiment: Antimicrobial activity (MIC), agar medium; type: cell-based; details: heart infusion agar
Description: as §1

[14] = test system: Bacillus subtilis ATCC 6633; experiment: Antimicrobial activity (MIC), agar medium; type: cell-based; details: heart infusion agar
Description: as §1

[15] = test system: Trichophyton asteroides; experiment: Antimicrobial activity (MIC), agar medium; type: cell-based; details: potato dextrose agar
Description: as §1

[16] = test system: Aspergillus niger NHL 5088; experiment: Antimicrobial activity (MIC), agar medium; type: cell-based; details: potato dextrose agar
Description: as §1

[17] = test system: Staphylococcus aureus Smith; experiment: Antimicrobial activity (MIC), agar medium; type: cell-based; details: heart infusion agar
Description: as §1

[18] = test system: Pseudomonas aeruginosa IID 1052; experiment: Antimicrobial activity (MIC), agar medium; type: cell-based; details: heart infusion agar
Description: as §1

[19] = test system: Staphylococcus aureus TRP-23; experiment: Antimicrobial activity (MIC), agar medium; type: cell-based; details: heart infusion agar
Description: as §1

[20] = test system: Botrytis cinerea; experiment: Growth inhibitory activity on plant pathogenic microorganisms (colony diameter); type: cell-based; details: 100 mcg/ml, 28° C., 7 days, control medium 47.7 mm
[21] = Solubility; type: physicochemical
[22] = test system: Glomerella cingulata; experiment: Growth inhibitory activity on plant pathogenic microorganisms (colony diameter); type: cell-based; details: 100 mcg/ml, 28° C., 7 days, control medium 27.3 mm
[23] = test system: Eimeria tenella; experiment: Activity against Eimeria tenella in infected chicks; type: in vivo, Eimeria tenella in male chicks (white leghorn); details: 0.01% by weight in feed, 8 days after infection
Description: Male chicks (white leghorn species) immediately after hatching were fed with a mixed feed for chicks containing no anti-coccidium agent until the test started. On the 8th day of feeding, health conditions of the test chicks were observed and the body weight was determined thereby dividing the test chicks into three groups, each group comprising 10 chicks and having an equal distribution of body weight. The test group was fed with a mixed feed for chicks containing 0.01% by weight of antibiotic TM-531 and the infected control group and the healthy group were fed with the same mixed feed but containing no antibiotic TM-531. On the 48th hour of feeding, each of chicks of the test group and the infected control group was infected with 9×10^4 mature oocysts of Eimeria tenella by oral administration. Eight days after infection, body weight increase (%), mortality (%) and O.P.G. [The number of oocysts (×10^4) present in 1 g of the content of caecum] were determined, and faeces conditions were observed and compared with those of the healthy group to determine the activity of antibiotic TM-531 against Eimeria tenella.

[24] = test system: Toxoplasma tachyzoites; experiment: Antitoxoplasma activity in infected mice macrophage culture; type: cell-based, Toxoplasma (in mice macrophage); details: 0.1 ppm, 37° C., 48 hours
Description: (§2) A mice macrophage cultured on a TC-199 medium containing 20% of calf serum was infected with Toxoplasma tachyzoites (hereinafter referred to as "T. tachyzoites") and cultured at 37° C. for about 1 hour. Thereafter, the resulting culture was washed with a phosphate buffer having pH 7.2 to wash out non-infected T. tachyzoites and an ethanol solution of antibiotic TM-531 was added to the medium at an appropriate concentration of antibiotic TM-531. The medium containing the protozoa and antibiotic TM-531 was incubated at 37° C. for 48 hours and then stained with Trypan Blue, and the number of T. tachyzoites per 100 macrophages was counted to determine the antitoxoplasma activity of antibiotic TM-531 as compared with the number of T. tachyzoites per 100 macrophages in the control medium containing no antibiotic TM-531.

[25] = test system: Helminthosporium sigmoldeum; experiment: Growth inhibitory activity on plant pathogenic microorganisms (colony diameter); type: cell-based; details: 100 mcg/ml, 28° C., 7 days, control medium 22.8 mm
[26] = test system: protozoa; experiment: Physiological properties: activity on protozoa; details: protozoa as hog dysentery, coccidium, toxoplasma, trypanosome, malaria, etc.; in words
[27] = test system: macrophage; experiment: Toxic sign on macrophage by optical microscope; type: cell-based; details: mice macrophage culture with TM-531
Description: as §2

[28] = test system: Gibberella fujikuroi; experiment: Growth inhibitory activity on plant pathogenic microorganisms (colony diameter); type: cell-based; details: 100 mcg/ml, 28° C., 7 days, control medium 27.6 mm
[29] = test system: Piricularia sasakii; type: cell-based; details: 28° C., 7 days
[30] = test system: gram-negative bacteria and yeasts; experiment: Physiological properties: activity on gram-negative bacteria and yeasts; details: in words

COC1CCC(OC2CC(C3(C)CCC4(CC(O)C(C)C(C(C)/C=C(\C)C(=O)C(C)CC(C)C(=O)O)O4)O3)OC3(OC(C4OC(C)(O)C(C)CC4C)CC3C)C2C)OC1C (centres unmarked) [TM-531]
growth inhibitory activity [1]: exhibits growth inhibitory activity
Minimum Inhibitory Concentration [2]: > 100 µg/mL
Minimum Inhibitory Concentration [3]: > 100 µg/mL
Minimum Inhibitory Concentration [4]: 3.13 µg/mL
Minimum Inhibitory Concentration [5]: > 100 µg/mL
Minimum Inhibitory Concentration [6]: 1.56 µg/mL
Minimum Inhibitory Concentration [7]: 1.56 µg/mL
Minimum Inhibitory Concentration [8]: 1.56 µg/mL
Minimum Inhibitory Concentration [9]: 3.13 µg/mL
Minimum Inhibitory Concentration [10]: > 100 µg/mL
Minimum Inhibitory Concentration [11]: > 100 µg/mL
Minimum Inhibitory Concentration [12]: 6.25 µg/mL
Minimum Inhibitory Concentration [13]: 3.13 µg/mL
Minimum Inhibitory Concentration [14]: 1.56 µg/mL
Minimum Inhibitory Concentration [15]: > 100 µg/mL
Minimum Inhibitory Concentration [16]: > 100 µg/mL
Minimum Inhibitory Concentration [17]: 6.25 µg/mL
Minimum Inhibitory Concentration [18]: > 100 µg/mL
Minimum Inhibitory Concentration [19]: 3.13 µg/mL
Colony Diameter, TM-531 Containing Medium [20]: 46.7 mm
Solubility in organic solvents ([21]; methanol, ethanol, acetone, ethyl acetate, diethyl ether, benzene, chloroform, hexane and petroleum ether): soluble in methanol, ethanol, acetone, ethyl acetate, diethyl ether, benzene, chloroform, hexane and petroleum ether
Solubility in water ([21]; water): insoluble in water
Colony Diameter, TM-531 Containing Medium [22]: 13.4 mm
O.P.G. (number of oocysts present in 1 g of the content of caecum) ([23]; infected control 17.3, healthy control 0): 0 × 10^4
Mortality ([23]; infected control 60, healthy control 0): 0%
Body Weight Increase ([23]; infected control 77.0, healthy control 100.0): 105.1%
Faeces Conditions ([23]; infected control loose passage 100%, hemafecial 80%): Normal
Percent Macrophage infected with T. tachyzoites, 1 ~ 5/cell ([24]; T. tachyzoites 1 ~ 5/cell, control medium 30.8): 0%
Percent Macrophage infected with T. tachyzoites, ≥6/cell ([24]; T. tachyzoites ≥6/cell, control medium 22.4): 0%
Colony Diameter, TM-531 Containing Medium [25]: 15.4 mm
effect on protozoa [26]: effective on protozoa
toxic sign on macrophage [27]: no toxic sign on macrophage
Colony Diameter, TM-531 Containing Medium [28]: 20.2 mm
Colony Diameter, TM-531 Containing Medium [29]: 63.0 mm
effect on gram-negative bacteria and yeasts [30]: ineffective on gram-negative bacteria and yeasts
